These results are taken from publication PMC3429506, “Screening for Novel LRRK2 Inhibitors Using a High-Throughput TR-FRET Cellular Assay for LRRK2 Ser935 Phosphorylation” (PLoS ONE, 2012).

One experiment deals with T1, LRRK2 A2016T/G2019S (Homo sapiens, UniProt Q5S007, A2016T/G2019S).
T1 construct: expressed in transfected cells
Kind of experiment: Immunoprecipitation/Western analysis of LRRK2 phosphorylation in T-REx HEK293 cells expressing inhibitor desensitizing mutant. Format: cell-based. To be noted: 20 µM, Figure 6 IRM. Here is the method: Immunoblot analysis: BacMam LRRK2-GFP transduced U-2 OS or SH-SY5Y cells (10^7 cells) were left untreated or treated with 3 µM LRRK2-IN-I for 90 min. For lysate preparation, the cells were washed once with ice-cold PBS and lysed by addition of ice-cold lysis buffer (20 mM Tris-HCl, pH 7.4, 1% NP-40, 5 mM EDTA, 5 mM NaF, 150 mM NaCl, and 1∶100 of protease and phosphatase inhibitor cocktails). The lysate was cleared of debris by centrifugation. Equal amount of total protein was loaded onto each lane for SDS-PAGE (3–8% Tris Acetate). The proteins were transferred onto nitrocellulose membrane using the iBLOT® dry blotting system (Life Technologies) according to manufacturer’s protocol. The membranes were blocked and incubated with a primary antibody against LRRK2 (Cell Signaling Technologies), followed by incubation with alkaline phosphatase-conjugated secondary antibody (WesternBreeze® chromogenic Kit, Life Technologies). The blot was developed by using the chromogenic BCIP/NBT substrate (WesternBreeze® chromogenic Kit, Life Technologies). […] Two days post induction, cells were treated for 90 minutes in the presence of 20 µM of compound or DMSO vehicle control. Cells were rapidly lysed in ice cold lysis buffer 50 mM Tris/HCl, pH 7.5, 1 mM EGTA, 1 mM EDTA, […] 1 mM sodium orthovanadate, 10 mM sodium beta-glycerolphosphate, 50 mM NaF, 5 mM sodium pyrophosphate, 0.27 M sucrose, 1 mM benzamidine and 2 mM phenylmethanesulphonylfluoride (PMSF) and one tablet each complete protease inhibitor and PhosSTOP phosphatase inhibitor (Roche) and was supplemented with 1% (v/v) Triton X-100. GFP-LRRK2 was immunoprecipitated with GFP nanotrap beads (ChromoTek). Immunecomplexes were washed twice with lysis buffer supplemented with 300 mM NaCl and once with Buffer A (50 mM Tris/HCl, pH 7.5, 50 mM NaCl, 0.1 mM EGTA and 0.1% (v/v) 2-mercaptoethanol, and 0.27 M sucrose).

Experiment [1] deals with T2, LRRK2 wild-type (Homo sapiens, UniProt Q5S007). Kind of experiment: TR-FRET cellular assay for LRRK2 Ser935 phosphorylation, U-2 OS cells, BacMam LRRK2-GFP wild-type. In kind it is cell-based. More on the design: This high-throughput assay utilizes cells expressing full-length human LRRK2 with a C-terminal GFP tag (LRRK2-GFP); host or cells: U-2 OS cells transduced with BacMam. On the procedure: (§1) U-2 OS cells are maintained in growth medium (McCoy’s 5A supplemented with 10% dialyzed FBS (dFBS), 10 mM HEPES, 0.1 mM NEAA, 1 mM Sodium Pyruvate, and 100 U/mL Penicillin/100 µg/mL Streptomycin). HEK293T cells are maintained in DMEM with 10% dFBS, 10 mM HEPES, 0.1 mM NEAA and 100 U/mL Penicillin/100 µg/mL Streptomycin. SH-SY5Y cells are maintained in DMEM/F-12 medium supplemented with 10% dFBS and 100 U/mL Penicillin/100 µg/mL Streptomycin. […] GIBCO® human neural stem cells (hNSCs) were propagated as an adherent culture in StemPro® NSC SFM according to the manufacturer’s recommended protocol (Life Technologies). For BacMam transduction of U-2 OS and HEK293T, cells were harvested, mixed with various amounts of BacMam LRRK2-GFP reagent (v/v) and plated onto 6-well plates. […] Cells were assayed in 384-well format (∼20,000 cells/well) 48 hours post-transduction as above.
T2 sequence (Q5S007 whole entry): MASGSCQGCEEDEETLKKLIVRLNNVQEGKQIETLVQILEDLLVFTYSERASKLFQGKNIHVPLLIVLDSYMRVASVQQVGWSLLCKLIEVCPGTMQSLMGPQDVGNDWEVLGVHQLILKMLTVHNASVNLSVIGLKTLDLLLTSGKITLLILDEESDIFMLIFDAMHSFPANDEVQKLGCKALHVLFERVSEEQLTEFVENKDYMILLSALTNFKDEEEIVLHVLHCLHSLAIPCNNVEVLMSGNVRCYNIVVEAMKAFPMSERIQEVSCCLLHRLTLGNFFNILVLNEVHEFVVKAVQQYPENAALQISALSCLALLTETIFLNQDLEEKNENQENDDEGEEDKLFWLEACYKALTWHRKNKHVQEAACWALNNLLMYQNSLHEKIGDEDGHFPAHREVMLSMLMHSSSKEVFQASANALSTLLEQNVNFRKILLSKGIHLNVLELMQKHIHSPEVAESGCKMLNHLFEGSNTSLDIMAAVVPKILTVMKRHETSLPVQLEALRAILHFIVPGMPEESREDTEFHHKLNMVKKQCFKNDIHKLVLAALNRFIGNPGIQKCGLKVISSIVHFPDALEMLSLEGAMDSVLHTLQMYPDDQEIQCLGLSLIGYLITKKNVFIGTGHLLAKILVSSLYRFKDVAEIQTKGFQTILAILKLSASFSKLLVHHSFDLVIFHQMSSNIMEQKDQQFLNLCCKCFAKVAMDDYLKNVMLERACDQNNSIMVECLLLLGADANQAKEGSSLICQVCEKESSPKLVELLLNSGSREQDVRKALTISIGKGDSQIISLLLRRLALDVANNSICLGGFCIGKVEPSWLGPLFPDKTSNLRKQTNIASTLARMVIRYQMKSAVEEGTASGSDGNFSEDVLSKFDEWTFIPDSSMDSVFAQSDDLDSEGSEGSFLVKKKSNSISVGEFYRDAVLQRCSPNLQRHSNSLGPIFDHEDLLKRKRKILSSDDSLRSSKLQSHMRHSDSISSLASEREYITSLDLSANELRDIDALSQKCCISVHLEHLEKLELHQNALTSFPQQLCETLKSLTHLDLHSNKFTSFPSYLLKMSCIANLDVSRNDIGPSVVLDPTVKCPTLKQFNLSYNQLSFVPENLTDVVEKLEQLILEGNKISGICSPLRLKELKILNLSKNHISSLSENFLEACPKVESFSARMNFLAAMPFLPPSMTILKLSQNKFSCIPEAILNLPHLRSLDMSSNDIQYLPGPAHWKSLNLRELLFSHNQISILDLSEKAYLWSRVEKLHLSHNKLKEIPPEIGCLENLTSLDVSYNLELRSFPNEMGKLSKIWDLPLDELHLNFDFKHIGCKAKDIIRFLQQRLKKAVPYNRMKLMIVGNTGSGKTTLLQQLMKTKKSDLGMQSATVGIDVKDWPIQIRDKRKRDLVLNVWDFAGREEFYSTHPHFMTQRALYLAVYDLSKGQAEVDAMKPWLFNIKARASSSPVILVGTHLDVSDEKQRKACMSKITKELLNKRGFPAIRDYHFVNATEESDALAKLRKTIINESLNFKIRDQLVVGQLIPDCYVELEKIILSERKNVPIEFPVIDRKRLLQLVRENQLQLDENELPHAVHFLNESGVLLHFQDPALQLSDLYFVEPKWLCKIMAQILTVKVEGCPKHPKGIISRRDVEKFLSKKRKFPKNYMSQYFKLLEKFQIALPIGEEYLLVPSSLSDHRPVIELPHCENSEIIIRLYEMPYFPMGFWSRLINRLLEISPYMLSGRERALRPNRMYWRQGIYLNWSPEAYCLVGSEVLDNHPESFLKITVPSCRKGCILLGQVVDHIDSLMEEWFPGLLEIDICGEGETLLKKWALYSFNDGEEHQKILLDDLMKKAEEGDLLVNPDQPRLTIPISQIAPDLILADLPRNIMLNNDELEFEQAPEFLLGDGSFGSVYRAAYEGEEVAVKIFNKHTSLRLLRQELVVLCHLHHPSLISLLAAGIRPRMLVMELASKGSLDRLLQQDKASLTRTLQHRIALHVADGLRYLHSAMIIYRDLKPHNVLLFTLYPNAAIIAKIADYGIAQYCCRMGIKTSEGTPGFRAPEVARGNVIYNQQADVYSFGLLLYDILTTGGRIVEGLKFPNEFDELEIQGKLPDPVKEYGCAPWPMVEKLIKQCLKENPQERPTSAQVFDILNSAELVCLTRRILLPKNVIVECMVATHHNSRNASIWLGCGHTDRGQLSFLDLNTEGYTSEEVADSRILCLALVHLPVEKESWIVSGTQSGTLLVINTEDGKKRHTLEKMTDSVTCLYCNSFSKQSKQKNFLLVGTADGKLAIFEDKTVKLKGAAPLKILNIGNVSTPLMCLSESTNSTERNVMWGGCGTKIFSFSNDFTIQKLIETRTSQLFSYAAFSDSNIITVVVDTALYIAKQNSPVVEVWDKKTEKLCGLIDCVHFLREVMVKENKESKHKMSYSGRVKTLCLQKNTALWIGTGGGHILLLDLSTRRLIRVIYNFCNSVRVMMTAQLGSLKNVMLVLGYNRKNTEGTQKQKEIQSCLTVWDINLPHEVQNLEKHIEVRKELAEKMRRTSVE
(§2) Transduced cells in the 384-well assay plate were incubated with indicated inhibitors (5X, 5 µL/well) for 60 to 90 minutes. During this time, 6 X lysis buffer (Life Technologies) was supplemented with 30 nM Tb-labeled anti-LRRK2 pSer935 antibody and both protease and phosphatase inhibitor cocktails (Sigma). The complete 6 X lysis buffer was added to each well (5 µL/well) and the plates were incubated at room temperature in the dark for 2 hours. […] A sigmoidal dose-response equation with varying slope was used to fit the data and generate IC50 values. Z′-factor values were calculated as: Z′-factor = 1 - [(3 × stdevno virus +3 × stdevmaxvirus)/(avgmaxvirus – avgno-virus)]. The IC50 values reported in Table 1 are the averaged numbers from three independent experiments.

Experiment [2] addresses T2, LRRK2 wild-type. Put plainly: TR-FRET cellular assay for LRRK2 Ser935 phosphorylation, HEK293T cells, BacMam LRRK2-GFP wild-type. On the set-up: This high-throughput assay utilizes cells expressing full-length human LRRK2 with a C-terminal GFP tag (LRRK2-GFP); host or cells: HEK293T cells transduced with BacMam. To be noted: WT, +/- SD, three independent experiments, * = partial inhibition, read-out: IC50, TR-FRET cell-based assay for Ser935 phosphorylation of LRRK2. Here is the method: as §1, §2

For the next experiment, the target named is LRRK2 G2019S (Homo sapiens, UniProt Q5S007, G2019S). Kind of experiment: TR-FRET cellular assay for LRRK2 Ser935 phosphorylation, human neural stem cells, BacMam LRRK2-GFP G2019S. Format: cell-based. More on the design: This high-throughput assay utilizes cells expressing full-length human LRRK2 with a C-terminal GFP tag (LRRK2-GFP); host or cells: U-2 OS, SH-SY5Y, HEK293T cells or human neural stem cells transduced with BacMam. To be noted: 10% BacMam G2019S, 90 min, Figure 4, read-out: IC50, inhibition of G2019S Ser935 phosphorylation via TR-FRET. Here is the method:
as §1
Transduced cells in the 384-well assay plate were incubated with indicated inhibitors (5X, 5 µL/well) for 60 to 90 minutes. During this time, 6 X lysis buffer (Life Technologies) was supplemented with 30 nM Tb-labeled anti-LRRK2 pSer935 antibody and both protease and phosphatase inhibitor cocktails (Sigma). […] Z′-factor values were calculated as: Z′-factor = 1 - [(3 × stdevno virus +3 × stdevmaxvirus)/(avgmaxvirus – avgno-virus)]. […]

T1 sequence (Q5S007 whole entry A2016T/G2019S): as the sequence (Q5S007 whole entry) above, with A2016T, G2019S counted along it
Sequence of LRRK2 G2019S (Q5S007 whole entry G2019S): as the sequence (Q5S007 whole entry) above, with G2019S counted along it

Take `COc1cc(C(=O)N2CCC(N3CCN(C)CC3)CC2)ccc1Nc1ncc2c(n1)N(C)c1ccccc1C(=O)N2C` [LRRK2-IN-1]: the “effect of desensitizing mutation A2016T/G2019S on compound-induced dephosphorylation (IP-Western)” value at LRRK2 A2016T/G2019S is listed as “rescued phosphorylation”. Besides, the 50% inhibitory concentration (IC50) at LRRK2 wild-type [1] (20% BacMam wild-type, 90 min, Figure 2B, read-out: IC50, inhibition of TR-FRET signal (Ser935 phosphorylation)) was found to be 80 nM; on LRRK2 wild-type [1] (WT, +/- SD, three independent experiments, * = partial inhibition, read-out: IC50, TR-FRET cell-based assay for Ser935 phosphorylation of LRRK2), 90 nM; on LRRK2 wild-type [2], 120 nM; at LRRK2 G2019S, 30 nM.
